# Data taken from patent US8497298B2, “Use of benzo-fused heterocycle sulfamide derivatives for lowering lipids and lowering blood glucose levels” (Janssen Pharmaceutica NV, priority 2005, dated 2013).
# System: Zucker diabetic fatty (ZDF Gmi-fa/fa) rats
# Test: Zucker Diabetic Fatty Rats Assay, Study B: basal glucose and Day 8 plasma parameters (Example 15)
# Type: in vivo, rat
# Settings: for Basal glucose levels Day 4: Day 4, 2 hour fasted; for Basal glucose levels Day 4 / Basal glucose levels Day 6 / Basal glucose levels Day 0: in mg/dL; for Basal glucose levels Day 6: Day 6, 2 hour fasted; for Cholesterol / HDL / Insulin / Ratio (Triglyceride to HDL) / Triglyceride: Day 8 plasma; for Basal glucose levels Day 0: female ZDF rats
# Description: Compound #8 was suspended in 0.5% Methocel using a hand held homogenizer to reduce the particle size and a magnetic stir bar and stir plate to keep the particles homogeneously suspended throughout the dosing period. 0.5% Hydroxypropyl Methylcellulose (Methocel) used as vehicle/control. Compound #8 was tested in both diabetic models of mouse and rat.
# In this study, female Zucker diabetic fatty (ZDF Gmi-fa/fa) rats were selected for glucose lowering effect and oral glucose tolerance test (OGTT) studies. ZDF rats from (Charles River Laboratories, Wilmington, Mass.) at 7 weeks of age were individually housed and fed with C13004 diet (obtained from Research Diets, New Brunswick, N.J.). All of the rats were quarantined for a period of one week before transfer to the animal procedure room. A drop of blood (about 2 microliters) was collected by tail puncture and glucose concentration was detected with a glucometer (OneTouch UltraSmart, Lifescan, Milpitas, Calif.).
# ZDF rats at 8 weeks of age were randomized into four treatment groups based on glucose values (first criterion, average of 150 mg/dL) and body weight (second criterion, average of 240 g). 32 rats were allocated into 4 treatment groups of 8 rats each. The four groups were then treated with 0.5% Methocel (vehicle), 10 mg/kg Compound #8, 30 mg/kg Compound #8, and 100 mg/kg Compound #8 in vehicle, respectively.
# The rats were orally gavaged once daily (at 1500-1700 hour) with vehicle control (0.5% Methocel, pH7.4) or vehicle containing Compound #8 for 7 days. The dosing volume was 5 mL/kg body weight (1.2 mL for 250 gram rat). The rats were fed ad lib throughout the study.
# Basal glucose levels after treatments were measured on Day 4 and Day 6 in 2 hour fasted rats with a glucometer (OneTouch UltraSmart, Lifescan, Milpitas, Calif.) after collecting two microliters of blood through tail puncture. Oral Glucose Tolerance Test (OGTT) was performed on Day 7 in 4 hour-fasted rats. Two hours after being dosed with Compound #8 or vehicle, the rats were gavaged with a 2g/kg of 50% glucose solution right after basal glucose levels measurement (0 minute). Blood glucose levels were then measured at 30, 60, 90 and 120 minutes through tail puncture.
# On Day 8, rats were anaesthetized with sodium pentobarbital (1 ml/kg, intraperitoneal [i.p.] injection, SleepAway, Fort Dodge, Iowa) and blood was drawn via cardiac puncture using 3 mL syringe and collected into heparinized tubes. Plasma samples were obtained by centrifuging whole blood at 2000˜3000 g for 10˜20 minutes at 4° C. and stored at −20° C. for further measurement of insulin, HDL, total cholesterol and triglyceride.
# Plasma insulin concentrations were measured by in both studies using the appropriate rat/mouse insulin enzyme-linked immunosorbent assay (ELISA) kit (EZRMI-13K, LINCO Research, St. Charles, Mo.). Blood samples were diluted 1:4 in charcoal stripped mouse serum that was included in the ELISA kit. The rest of the procedure followed the manufacturers instruction. The total fluorescence was detected using an Orion 1 Microplate Luminometer (Berthold Detection Systems, Pforzheim, Germany).
# Plasma total cholesterol, high density lipoprotein (HDL), low density lipoprotein (LDL) and triglyceride concentrations were measured by using a Bayer ADVIA 1650 blood chemistry analyzer (Bayer HealthCare LLC, Diagnostic Division, Tarrytown, N.Y.). According to manufacturers protocol, cholesterol measurement was an enzymatic method utilizing cholesterol esterase and cholesterol oxidase conversion followed by a Trinder endpoint; Elimination/catalase method was used for HDL measurement; an enzymatic method with a Trinder endpoint was used for triglyceride measurement.
# Data from this study was analyzed using the standard two-tailed Student's t-test and are expressed below as means and standard errors.
smiles,measurement,setting,value
"NS(=O)(=O)NC[C@H]1COc2cc(Cl)ccc2O1 [Compound #8, (2S)-(−)-N-(6-Chloro-2,3-dihydro-benzo[1,4]dioxin-2-ylmethyl)-sulfamide]",Basal glucose levels Day 4,10 mg/kg oral once daily,148 ± 15
same,Basal glucose levels Day 6,10 mg/kg oral once daily,190 ± 28
same,Cholesterol,10 mg/kg,142 ± 6 mg/dL
same,HDL,10 mg/kg,36 ± 1.0 mg/dL
same,Insulin,10 mg/kg,16 ± 1.0 ng/mL
same,Ratio (Triglyceride to HDL),10 mg/kg,37 ± 3
same,Triglyceride,10 mg/kg,1323 ± 124 mg/dL
same,Basal glucose levels Day 4,30 mg/kg oral once daily,146 ± 9
same,Basal glucose levels Day 6,30 mg/kg oral once daily,151 ± 11
same,Cholesterol,30 mg/kg,144 ± 11 mg/dL
same,HDL,30 mg/kg,36 ± 1.1 mg/dL
same,Insulin,30 mg/kg,14 ± 1.1 ng/mL
same,Ratio (Triglyceride to HDL),30 mg/kg,39 ± 7
same,Triglyceride,30 mg/kg,1383 ± 254 mg/dL
same,Basal glucose levels Day 4,100 mg/kg oral once daily,125 ± 4
same,Basal glucose levels Day 6,100 mg/kg oral once daily,134 ± 5
same,plasma insulin decreased,"100 mg/kg, Day 8",32%
same,ratio of triglyceride to HDL reduced,"100 mg/kg, Day 8",59%
same,Cholesterol,100 mg/kg,134 ± 7 mg/dL
same,HDL,100 mg/kg,41 ± 2.2 mg/dL
same,Insulin,100 mg/kg,8.8 ± 1.2 ng/mL
same,Ratio (Triglyceride to HDL),100 mg/kg,19 ± 3
same,Triglyceride,100 mg/kg,776 ± 119 mg/dL
same,food intake and weight loss,"any of the groups (10, 30, 100 mg/kg)",No reduction in food intake reduction or weight loss
same,Basal glucose levels Day 0,10 mg/kg group,153 ± 13
same,Basal glucose levels Day 0,30 mg/kg group,152 ± 11
same,Basal glucose levels Day 0,100 mg/kg group,147 ± 7
